Data from patent US20230365568A1, “PLK1 POLO BOX DOMAIN INHIBITORS AND METHOD OF TREATING CANCER” (The United States of America,as represented by the …, priority 2020, published 2023).

Legend:
[1] = for PAMPA permeability: pH 7.4
[2] = Microsomal metabolic stability, rat liver microsomes (RLM); details: rat liver microsomes

Compound | PAMPA [1] [×10⁻⁶ cm/s] | t1/2 (min, RLM) [2] [min] | Solub. (Aqueous solubility; aqueous solubility) [µg/mL] | PAMPA permeability [1] | solubility (Aqueous solubility) | Solub. (μg/ml) (Aqueous solubility; aqueous solubility)
CC(=O)NCCn1c(=O)c2cc(F)ccc2n2c(=S)[nH]nc12 [compound 72] | – | >30 | >47 | – | – | –
NCCOCCOCCOCCC(=O)NCCCn1c(=O)c2cc(F)ccc2n2c(=S)[nH]nc12 [compound 98] | – | >30 | 36.1 | – | – | –
O=C(NCCCn1c(=O)c2cc(F)ccc2n2c(=S)[nH]nc12)C1CCCNC1 (stereo not shown) [compound 113] | – | >30 | 29.6 | – | – | –
CC(CN(C)C)n1c(=O)c2cc(F)ccc2n2c(=S)[nH]nc12 (stereo not shown) [compound 71] | 186 | >30 | >47 | – | – | –
O=c1c2cc(F)ccc2n2cnnc2n1CCc1ccccc1 [compound 18] | 924 | 11.8 | 14.8 | – | – | –
O=c1c2cc(F)ccc2n2c(=S)[nH]nc2n1Cc1ccccc1 [compound 52] | 841 | >30 | 8.3 | – | – | –
O=C(CN1CCOCC1)NCCCn1c(=O)c2cc(F)ccc2n2c(=S)[nH]nc12 [compound 118] | <1 | >30 | >62 | – | – | –
CN1CCN(CCn2c(=O)c3cc(F)ccc3n3c(=S)[nH]nc23)CC1 [compound 91] | – | >30 | >54 | – | – | –
CC(C)CNC(=O)CCn1c(=O)c2ccccc2n2c(=S)[nH]nc12 [compound 32] | – | – | 30.8 | – | – | –
O=C(CC1CCNCC1)NCCCn1c(=O)c2cc(F)ccc2n2c(=S)[nH]nc12 [compound 116] | – | >30 | 37.5 | – | – | –
4-(3-aminopropyl)-9-fluoro-1-thioxo-2,4-dihydro-[1,2,4]triazolo[4,3-a]quinazolin-5(1H)-one [compound 69] | – | >30 | – | – | – | –
O=c1c2cc(F)ccc2n2c(=S)[nH]nc2n1CCc1ccc(Cl)cc1 [compound 82] | <1 | >30 | 1.2 | – | – | –
CC(C)(C)OC(=O)N1CCN(CCn2c(=O)c3cc(F)ccc3n3c(=S)[nH]nc23)CC1 [compound 92] | – | 26.3 | 20.5 | – | – | –
O=C(Cc1ccc(O)cc1)NCCCn1c(=O)c2cc(F)ccc2n2c(=S)[nH]nc12 [compound 127, N-(3-(7-fluoro-5-oxo-1-thioxo-1,2-dihydro-[1,2,4]triazolo[4,3-a]quinazolin-4(5H)-yl)propyl)-2-(4-hydroxyphenyl)acetamide] | – | >30 | 31.0 | – | – | –
CC(C)(C)OC(=O)NC1CCC(C(=O)NCCCn2c(=O)c3cc(F)ccc3n3c(=S)[nH]nc23)CC1 (stereo not shown) [compound 110] | 330 | 24.8 | >77 | – | – | –
CN(C)CCn1c(=O)c2cc(F)ccc2n2c(=S)[nH]nc12 [compound 70] | 177 | >30 | >45 | – | – | –
CCCn1c(=O)c2ccccc2n2c(=S)n(CN(C)C3CC3)nc12 [compound 35] | – | – | – | – | – | Insol.
CCn1c(=O)c2cc(F)ccc2n2c(=S)[nH]nc12 [compound 63] | – | >30 | >39 | – | – | –
O=C(NCCCn1c(=O)c2cc(F)ccc2n2c(=S)[nH]nc12)c1ccc(Cn2ccnc2)cc1 [compound 119, 4-((1H-imidazol-1-yl)methyl)-N-(3-(7-fluoro-5-oxo-1-thioxo-1,2-dihydro-[1,2,4]triazolo[4,3-a]quinazolin-4(5H)-yl)propyl)benzamide] | – | >30 | 13.7 | – | – | –
O=C(Cc1ccc(F)cc1)NCCCn1c(=O)c2cc(F)ccc2n2c(=S)[nH]nc12 [compound 123, N-(3-(7-fluoro-5-oxo-1-thioxo-1,2-dihydro-[1,2,4]triazolo[4,3-a]quinazolin-4(5H)-yl)propyl)-2-(4-fluorophenyl)acetamide] | – | 26.3 | – | – | – | –
O=c1c2ccccc2n2c(=O)[nH]nc2n1CCc1ccccc1 [compound 15] | – | – | <1 | – | – | –
O=C(Cc1cccc(C(F)(F)F)c1)NCCCn1c(=O)c2cc(F)ccc2n2c(=S)[nH]nc12 [compound 132, N-(3-(7-fluoro-5-oxo-1-thioxo-1,2-dihydro-[1,2,4]triazolo[4,3-a]quinazolin-4(5H)-yl)propyl)-2-(3-(trifluoromethyl)phenyl)acetamide] | – | 17.3 | 26.8 | – | – | –
O=C(NCCCn1c(=O)c2cc(F)ccc2n2c(=S)[nH]nc12)C1CCCCN1 (stereo not shown) [compound 112] | – | >30 | >60 | – | – | –
CCCn1c(=O)c2ccccc2n2c(=S)n(CN(CC)CC(C)C)nc12 [compound 38] | – | – | 8.7 | – | – | –
O=c1c2cc(F)ccc2n2c(=S)[nH]nc2n1CCc1cccnc1 [Cmpd 84] | <1 | – | – | – | – | –
NCCn1c(=O)c2cc(F)ccc2n2c(=S)[nH]nc12 [compound 67] | – | >30 | >41 | – | – | –
O=c1c2cc(F)ccc2n2c(=S)[nH]nc2n1CCc1ccccc1Cl [compound 81] | – | 22.8 | 3.0 | – | – | –

The remaining lines, values ahead:

PAMPA [1] [×10⁻⁶ cm/s] | t1/2 (min, RLM) [2] [min] | Solub. (Aqueous solubility; aqueous solubility) [µg/mL] | PAMPA permeability [1] | solubility (Aqueous solubility) | Solub. (μg/ml) (Aqueous solubility; aqueous solubility) | Compound
405 | – | – | – | – | – | CC(C)(C)OC(=O)NCCCCCC(=O)NCCCn1c(=O)c2cc(F)ccc2n2c(=S)[nH]nc12 [Cmpd 101]
234 | >30 | 20.2 | – | – | – | O=c1c2cc(F)ccc2n2c(=S)[nH]nc2n1CCN1CCC(F)(F)CC1 [compound 89]
– | – | 8.1 | – | – | – | CC(C)NC(=O)CCn1c(=O)c2cc(Cl)ccc2n2c(=S)[nH]nc12 [compound 57]
– | >30 | 34 | – | – | – | CS(=O)(=O)NCCCn1c(=O)c2cc(F)ccc2n2c(=S)[nH]nc12 [compound 76]
355 | >30 | 13.0 | moderate to good permeability | – | – | O=c1c2cc(F)ccc2n2c(=S)[nH]nc2n1CCc1ccccn1 [compound 83]
222 | >30 | >43 | – | – | – | O=c1c2cc(F)ccc2n2c(=S)[nH]nc2n1CCCO [compound 66]
358 | >30 | 2.4 | – | – | – | O=c1c2cc(F)ccc2n2c(=S)[nH]nc2n1CCN1CCCCC1 [compound 88]
– | >30 | 17.8 | – | – | – | CN1CCCC1CCn1c(=O)c2cc(F)ccc2n2c(=S)[nH]nc12 (stereo not shown) [compound 87]
– | 10.7 | 11.0 | – | – | – | Cc1nnc2n(CCc3ccccc3)c(=O)c3cc(F)ccc3n12 [compound 17]
– | 8.8 | <1 | – | – | – | O=c1c2cc(F)ccc2n2c(=S)[nH]nc2n1CCCc1ccccc1 [compound 53]
356 | – | – | – | – | – | CN(C)c1ccc2c(c1)c(=O)n(CCc1ccccc1)c1n[nH]c(=S)n21 [Cmpd 45]
8.0 | – | <1 | – | – | – | O=C(NCCCn1c(=O)c2cc(F)ccc2n2c(=S)[nH]nc12)C1CCOCC1 [compound 115]
– | – | >51 | – | – | – | O=c1c2cc(F)ccc2n2c(=S)[nH]nc2n1CCP(=O)(O)O [compound 77]
67.0 | >30 | >52 | – | – | – | O=c1c2cc(F)ccc2n2c(=S)[nH]nc2n1CCN1CCOCC1 [compound 90]
– | >30 | 1.1 | – | – | – | CC(C)(C)[C@H]1CC[C@H](C(=O)NCCCn2c(=O)c3cc(F)ccc3n3c(=S)[nH]nc23)CC1 [compound 109]
– | >30 | 38.8 | – | – | – | NC1CCC(C(=O)NCCCn2c(=O)c3cc(F)ccc3n3c(=S)[nH]nc23)CC1 (stereo not shown) [compound 111]
117 | >30 | 17.3 | moderate to good permeability | moderate to good solubility | – | O=c1c2cc(F)ccc2n2c(=S)[nH]nc2n1CCC(F)(F)F [compound 65]
257 | >30 | 5.1 | – | – | – | O=c1c2cc(Cl)ccc2n2c(=S)[nH]nc2n1CCC(F)(F)F [compound 55]
<1 | >30 | >64 | – | – | – | CN1CCN(CC(=O)NCCCn2c(=O)c3cc(F)ccc3n3c(=S)[nH]nc23)CC1 [compound 117]
155 | >30 | >58 | – | – | – | O=C(NCCCn1c(=O)c2cc(F)ccc2n2c(=S)[nH]nc12)C1CCCC1 [compound 108]
– | >30 | 31.8 | – | – | – | NCCCCCC(=O)NCCCn1c(=O)c2cc(F)ccc2n2c(=S)[nH]nc12 [compound 100]
201 | >30 | <1 | – | – | – | O=c1c2cc(F)ccc2n2c(=S)[nH]nc2n1CCC1CCC(F)(F)CC1 [compound 93]
– | >30 | >60 | – | – | – | O=C(NCCCn1c(=O)c2cc(F)ccc2n2c(=S)[nH]nc12)C1CCNCC1 [compound 114]
– | – | 19.5 | – | – | – | CC(C)n1c(=O)c2ccccc2n2c(=S)[nH]nc12 [compound 26]
744 | – | – | – | – | – | CC(C)(C)OC(=O)CC[C@H](NC(=O)OC(C)(C)C)C(=O)NCCCn1c(=O)c2cc(F)ccc2n2c(=S)[nH]nc12 [Cmpd 103]
– | – | 8.6 | – | – | – | CC(C)OCCCn1c(=O)c2cc(Cl)ccc2n2c(=S)[nH]nc12 [compound 56]
– | 25.1 | 20.4 | – | – | – | CC(C)(C)OC(=O)CC[C@@H](NC(=O)OC(C)(C)C)C(=O)NCCCn1c(=O)c2cc(F)ccc2n2c(=S)[nH]nc12 [compound 102]
229 | – | 15 | – | – | – | CC(C)(C)OC(=O)N1CC(CCn2c(=O)c3cc(F)ccc3n3c(=S)[nH]nc23)C1 [compound 86]
– | >30 | >59 | – | – | – | CCOP(=O)(CCn1c(=O)c2cc(F)ccc2n2c(=S)[nH]nc12)OCC [compound 78]
